Source: ChEMBL document CHEMBL1201862, “PubChem BioAssay data set” (2004)
Where a name gives a salt, the structure may show the parent alone.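 All cell lines were grown in 96-well plates and treated with compound for 48 hours. GI50: concentration for 50% inhibition of growth.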 Active and inactive are the calls of the source. Cut-off read from the data, not from the text of the source: active = GI50 up to about 1.1 µM and inactive = higher.

Columns and labels:
Test in all cases: DTP human tumour cell line panel, 48 h
[1] = test system: IGROV-1
[2] = test system: NCI-H522
[3] = test system: HL-60
[4] = test system: XF498
[5] = test system: M19-MEL
[6] = test system: DMS-114
[7] = test system: EKVX
[8] = test system: HOP-92
[9] = test system: SR
[10] = test system: SK-OV-3
[11] = test system: HCC 2998
[12] = test system: A549
[13] = test system: RXF 393
[14] = test system: HCT-15
[15] = test system: SW-620
[16] = test system: SF-295
[17] = test system: LOX IMVI
[18] = test system: SNB-78
[19] = test system: NCI-H226
[20] = test system: MDA-MB-435

SMILES	GI50 [1]	GI50 [2]	GI50 [3]	GI50 [4]	GI50 [5]	GI50 [6]	GI50 [7]	GI50 [8]	GI50 [9]	GI50 [10]	GI50 [11]	GI50 [12]	GI50 [13]	GI50 [14]	GI50 [15]	GI50 [16]	GI50 [17]	GI50 [18]	GI50 [19]	GI50 [20]
CCCCN1C=CN2c3nc4cc(C)c(C)cc4n3C(C(=O)OC)=C(C(=O)OC)C12 (stereo unspecified)	> 100 µM (inactive)	> 100 µM (inactive)	> 100 µM (inactive)	> 100 µM (inactive)	> 100 µM (inactive)	> 100 µM (inactive)	> 100 µM (inactive)	> 100 µM (inactive)	> 100 µM (inactive)	> 100 µM (inactive)	> 100 µM (inactive)	> 100 µM (inactive)	> 100 µM (inactive)	> 100 µM	> 100 µM (inactive)	> 100 µM (inactive)	> 100 µM (inactive)	> 100 µM (inactive)	–	–
[O-]c1on[n+]2c1c(Nc1ccc(Cl)cc1)nc1ccccc12	> 100 µM (inactive)	> 100 µM (inactive)	> 100 µM (inactive)	> 100 µM (inactive)	> 100 µM (inactive)	> 100 µM (inactive)	> 100 µM (inactive)	> 100 µM (inactive)	> 100 µM (inactive)	> 100 µM (inactive)	> 100 µM (inactive)	> 100 µM (inactive)	> 100 µM (inactive)	–	> 100 µM (inactive)	> 100 µM (inactive)	> 100 µM (inactive)	> 100 µM (inactive)	–	–
Cc1ccc(NC(=O)/C(CC(=O)c2c[n+]([O-])c3ccccc3[n+]2[O-])=N\NC(=O)C[n+]2ccccc2)cc1	> 100 µM (inactive)	> 100 µM (inactive)	35 µM (inactive)	> 100 µM (inactive)	> 100 µM (inactive)	> 100 µM (inactive)	> 100 µM (inactive)	–	> 100 µM (inactive)	> 100 µM (inactive)	> 100 µM (inactive)	> 100 µM (inactive)	> 100 µM (inactive)	> 100 µM	> 100 µM (inactive)	> 100 µM (inactive)	> 100 µM (inactive)	> 100 µM (inactive)	> 100 µM (inactive)	–
CS(=O)(=O)OCCN(CCOS(C)(=O)=O)c1ccc(/C=N/c2ccc(-c3csc(COc4ccccc4)n3)cc2)cc1	12.6 µM (inactive)	0.295 µM (active)	0.817 µM (active)	2.12 µM (inactive)	13.4 µM (inactive)	5.85 µM (inactive)	5.5 µM (inactive)	15.6 µM (inactive)	0.222 µM (active)	1.69 µM (inactive)	2.26 µM (inactive)	3.21 µM (inactive)	0.461 µM (active)	8.51 µM	8.09 µM (inactive)	0.807 µM (active)	4.27 µM (inactive)	18.7 µM (inactive)	2.66 µM (inactive)	12.4 µM (inactive)
COC(=O)Cc1cc(=O)n2c([nH]c3ccccc32)c1C#N	> 100 µM (inactive)	–	> 100 µM (inactive)	> 100 µM (inactive)	> 100 µM (inactive)	> 100 µM (inactive)	> 100 µM (inactive)	–	> 100 µM (inactive)	36.1 µM (inactive)	> 100 µM (inactive)	> 100 µM (inactive)	97.3 µM (inactive)	> 100 µM	> 100 µM (inactive)	> 100 µM (inactive)	> 100 µM (inactive)	> 100 µM (inactive)	> 100 µM (inactive)	–
C/C=C1/C(=Cc2[nH]c(C=c3[nH]/c(=C/C4=NC(=O)C(CC)=C4C)c(C)c3CCC(=O)O)c(CCC(=O)O)c2C)NC(=O)C1C (stereo unspecified)	3.38 µM (inactive)	6.19 µM (inactive)	7.59 µM (inactive)	8.63 µM (inactive)	10.9 µM (inactive)	19.1 µM (inactive)	30.6 µM (inactive)	0.0173 µM (active)	4.37 µM (inactive)	42.1 µM (inactive)	11.4 µM (inactive)	10.5 µM (inactive)	> 50 µM (inactive)	2.58 µM	2.96 µM (inactive)	6.65 µM (inactive)	1.04 µM (active)	11.5 µM (inactive)	2.59 µM (inactive)	–
Cc1c(C2=NN=C(/N=N/c3c(O)cccc3O)/C2=C/c2ccccc2)c(=O)n(-c2ccccc2)n1C	> 100 µM (inactive)	> 100 µM (inactive)	> 100 µM (inactive)	> 100 µM (inactive)	> 100 µM (inactive)	> 100 µM (inactive)	> 100 µM (inactive)	> 100 µM (inactive)	–	> 100 µM (inactive)	> 100 µM (inactive)	> 100 µM (inactive)	> 100 µM (inactive)	> 100 µM	> 100 µM (inactive)	> 100 µM (inactive)	> 100 µM (inactive)	> 100 µM (inactive)	> 100 µM (inactive)	–
CC1SC(c2ccccc2)N(Nc2c3ccccc3nc3ccccc23)C1=O (stereo unspecified)	27 µM (inactive)	40 µM (inactive)	–	> 100 µM (inactive)	> 100 µM (inactive)	45.5 µM (inactive)	48.2 µM (inactive)	–	42.6 µM (inactive)	28.4 µM (inactive)	> 100 µM (inactive)	58.5 µM (inactive)	–	51.8 µM	> 100 µM (inactive)	69 µM (inactive)	89.1 µM (inactive)	> 100 µM (inactive)	55.3 µM (inactive)	–
O=c1ccc2ccccc2o1 [COUMARIN]	> 100 µM (inactive)	> 100 µM (inactive)	> 100 µM (inactive)	> 100 µM (inactive)	> 100 µM (inactive)	> 100 µM (inactive)	> 100 µM (inactive)	> 100 µM (inactive)	–	> 100 µM (inactive)	> 100 µM (inactive)	> 100 µM (inactive)	> 100 µM (inactive)	> 100 µM	> 100 µM (inactive)	> 100 µM (inactive)	> 100 µM (inactive)	> 100 µM (inactive)	> 100 µM (inactive)	–
O=C1c2c(O)cccc2-c2nn(CCNCCO)c3ccc(NCCNCCO)c1c23 [LOSOXANTRONE HYDROCHLORIDE]	0.337 µM (active)	0.0228 µM (active)	< 0.01 µM (active)	0.0135 µM (active)	0.16 µM (active)	< 0.0104 µM (active)	0.867 µM (active)	0.0285 µM (active)	< 0.01 µM (active)	0.0735 µM (active)	0.137 µM (active)	< 0.01 µM (active)	0.188 µM (active)	2.36 µM	0.116 µM (active)	0.0236 µM (active)	0.0667 µM (active)	0.634 µM (active)	< 0.0171 µM (active)	0.53 µM (active)
